Measured values published in ChEMBL document CHEMBL1157876, “Isomeric tropane alkaloids from the aerial parts of Schizanthus tricolor” (J Nat Prod, 2010).

System: Plasmodium falciparum
Test: Antimalarial activity against chloroquine and pyrimethamine-resistant Plasmodium falciparum K1 infected in human erythrocytes after 72 hrs by spectrophotometry based Malstat method
Assay type: functional, organism-based
Settings: K1, 72 h

With CCN(CC)Cc1cc(Nc2ccnc3cc(Cl)ccc23)ccc1O as the compound, how does the IC50 read?
Its IC50 is < 0.25 µM.

For C=C(CC(=O)O[C@@H]1C[C@H]2C[C@H](OC(=O)C=C(C)C)[C@H](C1)N2C)C(=O)OC, which IC50 is on record?
The IC50 was 22.8 µM.

Which IC50 does the source give for COC(=O)/C(C)=C/C(=O)O[C@@H]1C[C@H]2C[C@H](OC(=O)C=C(C)C)[C@H](C1)N2C here?
The IC50 was 63.5 µM.

For C/C=C(\C)C(=O)O[C@H]1C[C@@H]2C[C@@H](OC(=O)/C=C(\C)C(=O)OC)C[C@@H]1N2C, which IC50 is on record?
The IC50 was 36 µM.

With C/C=C(/C)C(=O)O[C@H]1C[C@@H]2C[C@@H](OC(=O)/C=C(\C)C(=O)OC)C[C@@H]1N2C as the compound, how does the IC50 read?
The IC50 was 24.8 µM.

System: not listed separately
Test: Cytotoxicity against human MRC5 SV2 cells after 72 hrs by resazurin dye reduction assay
Assay type: cell-based
Settings: not given

With C=C(CC(=O)O[C@@H]1C[C@H]2C[C@H](OC(=O)C=C(C)C)[C@H](C1)N2C)C(=O)OC as the compound, how does the CC50 at 72 h read?
Its CC50 at 72 h is > 64 µM.

With C/C=C(\C)C(=O)O[C@H]1C[C@@H]2C[C@@H](OC(=O)/C=C(\C)C(=O)OC)C[C@@H]1N2C as the compound, how does the CC50 at 72 h read?
The CC50 at 72 h was > 64 µM.

For C/C=C(/C)C(=O)O[C@H]1C[C@@H]2C[C@@H](OC(=O)/C=C(\C)C(=O)OC)C[C@@H]1N2C, which CC50 at 72 h is on record?
The CC50 at 72 h was > 64 µM.
